Paper PMC7738508, “A therapeutic combination of two small molecule toxin inhibitors provides broad preclinical efficacy against viper snakebite” (Nature Communications, 2020)
“And” between values parts separate entries of the source, which are not always exact repeats. Identical values can stand only once.

Legend:
[1] = tested on: procoagulant activity of Echis carinatus venom (citrated bovine plasma); test: plasma clotting assay; assay type: biochemical; set-up: key: max of first derivative of A595 clot curve (max clotting velocity); details: Echis carinatus venom 100 ng, independent repeats
Method: (§1) We used a previously developed plasma clotting assay[35] to measure venom-induced coagulation. Briefly, 100 ng of each venom was incubated at 37 °C for 30 min in the presence or absence of inhibitors (150 µM to 150 nM final concentrations). The final reaction consisted of 10 µl venom ± inhibitors in PBS, 20 µl 20 mM CaCl2, and 20 µl citrated bovine plasma (VWR). The samples were pipetted in triplicate into 384-well plates, and absorbance monitored at 595 nm for 2 h at 25 °C on an Omega FLUOstar instrument. We calculated the maximum clotting velocity of each of the curves as per clot waveform analysis, by calculating the maximum of the first derivative. The means of at least three independent experimental runs for each condition were plotted at each inhibitor concentration with SEMs.

[2] = tested on: Echis carinatus venom SVMP activity; test: fluorogenic SVMP assay; assay type: biochemical; details: independent repeats
Method: (§2) The SVMP assay measuring metalloproteinase activity and the plasma assay measuring coagulation in the presence or absence of venoms and inhibitors were performed as previously described. The SVMP assay kinetically measured cleavage of a quenched fluorogenic substrate (ES010, R&D Biosystems) by venom in the presence or absence of inhibitors.
(§3) Briefly, 10 µl of the substrate (supplied as a 6.2 mM stock) was used per 5 ml reaction buffer (150 mM NaCl, 50 mM Tris-Cl pH 7.5). Reactions consisted of 10 µl of venom ± inhibitors in PBS and 90 µl of substrate. Venoms were used at 1 µg/reaction and final inhibitor concentrations ranged from 150 µM to 150 nM. Samples were preincubated for 30 min at 37 °C and pipetted in triplicate into 384-well plates (Greiner). Thereafter, data was collected on an Omega FLUOstar (BMG Labtech) instrument at an excitation wavelength of 320 nm and emission wavelength of 405 nm at 25 °C for 1 h. The areas under the curve (AUCs) in the 0–40 min interval were calculated for each sample using MARS data analysis software v3.31 (BMG Labtech); this time point was chosen as the time where all fluorescence curves had reached a plateau (maximum fluorescence). For comparing venom-only samples, the means of at least three independent experimental runs for each condition, expressed as AUCs (n ≥ 3), were plotted at each inhibitor concentration with standard error of the mean (SEM). To determine inhibitor efficacy, the AUCs for each of the samples that consisted of venom + inhibitors were transformed and expressed as percentages of the venom-only sample (where the venom was 100%). The negative control (PBS-only) was also expressed relative to the venom, and the variation in background was presented as an interval delineated by the lowest and highest values in the PBS-only samples across concentrations and inhibitors for a specific venom.

[3] = tested on: Echis ocellatus venom SVMP activity; test: fluorogenic SVMP assay; assay type: biochemical; details: independent repeats
Method: as §2, §3

[4] = tested on: Bothrops asper venom SVMP activity; test: fluorogenic SVMP assay; assay type: biochemical; details: independent repeats
Method: as §2, §3

[5] = tested on: Bitis arietans venom SVMP activity; test: fluorogenic SVMP assay; assay type: biochemical; details: independent repeats
Method: as §2, §3

[6] = tested on: procoagulant activity of Bothrops asper venom (citrated bovine plasma); test: plasma clotting assay; assay type: biochemical; details: Bothrops asper venom 100 ng, independent repeats
Method: as §1

[7] = tested on: procoagulant activity of Echis ocellatus venom (citrated bovine plasma); test: plasma clotting assay; assay type: biochemical; details: Echis ocellatus venom 100 ng, independent repeats
Method: as §1

[8] = tested on: procoagulant activity of viper venoms (citrated bovine plasma); test: plasma clotting assay, viper venoms overall; assay type: biochemical
Method: as §1

[9] = tested on: coagulopathic activity of Daboia russelii venom (citrated bovine plasma); test: plasma clotting assay; assay type: biochemical; set-up: key to maximum clotting velocity: max of first derivative of A595 clot curve (max clotting velocity); details: for maximum clotting velocity: Daboia russelii venom 100 ng, independent repeats
Method: as §1

[10] = tested on: SVMP bioactivity of the four active venoms (E. ocellatus, E. carinatus, B. asper, B. arietans); test: in vitro kinetic fluorogenic SVMP assay, viper venoms overall; assay type: biochemical
Method: as §2, §3

E. ocellatus venom [11] = details: cited from earlier work
E. ocellatus venom [12] = test: in vivo preincubation model of envenoming (i.v.); set-up: species or system CD-1 mice
Method: All animal experiments were conducted using protocols approved by the Animal Welfare and Ethical Review Boards of the Liverpool School of Tropical Medicine and the University of Liverpool, and performed in specific pathogen-free conditions under licensed approval (PPL #4003718 and #P5846F90) of the UK Home Office and in accordance with the Animal [Scientific Procedures] Act 1986 and institutional guidance on animal care. All experimental animals (18–20 g [4–5 weeks old], male, CD-1 mice, Charles River, UK) were housed in groups of five with environmental enrichment, water and food ad libitum and their health monitored daily during acclimatization. The experimental design was based upon 3R-refined WHO-recommended protocols[28],[41], with animals randomized and observers being blinded to the experimental condition. The median lethal doses (venom LD50) used for E. ocellatus (Nigeria), E. carinatus (India), B. asper (Costa Rica), D. russelii (Sri Lanka) and B. arietans (Nigeria) venoms were previously determined[25],[41],[44],[45].
All experimental doses were prepared to a volume of 200 µl in PBS and incubated at 37 °C for 30 min prior to their intravenous injection via the tail vein. Animals were monitored for 6 h, and euthanized via rising concentrations of CO2 upon observation of previously defined humane end points that are predicators of lethality (e.g., seizure, pulmonary distress, paralysis, hemorrhage)[28]. Deaths, time of death, and survivors were recorded; where death/time of death actually represents the implementation of euthanasia based on defined humane end points.
For all experimental animals described above, blood samples were collected via cardiac puncture immediately post-euthanasia. Plasma was separated by centrifugation at 400 × g for 10 min and stored at −80 °C. We assessed the levels of thrombin-antithrombin complexes (TAT) and soluble thrombomodulin using mouse ELISA Kits (ab137994 and ab209880, Abcam), following the manufacturer’s protocol. All available plasma samples (some were unobtainable via cardiac puncture due to extensive internal hemorrhage) were assessed if the time of death within the group varied, whereas three samples were randomly chosen if the time of death was the same (e.g., either very rapid death within 2 min, or survival until the end of the experiment [360 min or 24 h]). The resulting data was plotted as the median of duplicate measurements for each animal and is presented with standard deviations (SDs).

[13] = tested on: Echis ocellatus venom SVSP activity; test: chromogenic SVSP assay; assay type: biochemical; details: nafamostat 150 nM, independent repeats
Method: (§4) SVSP activity was measured using a chromogenic substrate (S-2288, Cambridge Bioscience). Reactions consisted of 15 µl of venom ± inhibitors in PBS, 15 µl of assay buffer (100 mM Tris-Cl pH 8.5, 100 mM NaCl) and 15 µl of 6 mM substrate. A positive venom-only control, a negative control containing 15 µl of PBS and a drug-only control (where applicable) were also included. The final substrate concentration was 2 mM and venoms were used at 1 µg/reaction. When testing inhibitors, these were preincubated with the venoms for 30 min at 37 °C with concentrations ranging from 150 µM to 150 nM (tenfold dilutions). The samples were pipetted in triplicate into 384-well plates (Greiner) and absorbance at 405 nm was monitored kinetically for ~30 min on an Omega FLUOstar instrument (BMG Labtech). Given the linearity of the resulting slopes, negative control readings (PBS) were subtracted from each reading and the rate of substrate consumption calculated by measuring the slope between 0 and 5 min. The mean rates (expressed as ΔAbs/time/µg venom) of at least three independent experimental runs for each condition (n ≥ 3) were plotted at each inhibitor concentration with SEMs using Prism v8 software (GraphPad).

[14] = tested on: Bitis arietans venom SVSP activity; test: chromogenic SVSP assay; assay type: biochemical; details: independent repeats
Method: as §4

[15] = tested on: Echis carinatus venom SVSP activity; test: chromogenic SVSP assay; assay type: biochemical; details: independent repeats
Method: as §4

[16] = tested on: Bothrops asper venom SVSP activity; test: chromogenic SVSP assay; assay type: biochemical; details: independent repeats
Method: as §4

[17] = cited from earlier work
[18] = tested on: SVSP activity of viper venoms; test: chromogenic SVSP assay, viper venoms overall; assay type: biochemical
Method: as §4

plasma coagulation = assay type: biochemical, bovine; details: no venom; high doses (150 µM)
Method: as §1

## O=S(=O)(O)CC(S)CS (stereo not drawn) [DMPS, 2,3-dimercapto-1-propanesulfonic acid]
[1]; inhibitor 15 µM
  maximum clotting velocity: 0.04133 and 0.038 and 0.05133
[1]; inhibitor 150 µM
  maximum clotting velocity: 0.033 and 0.04 and 0.03533
[2]; inhibitor 15 µM
  SVMP activity, percentage of the venom-only sample: 24.5956% and 26.5777% and 20.6819%
[2]; inhibitor 150 µM
  SVMP activity, percentage of the venom-only sample: 13.0224% and 14.752% and 12.5581%
[3]; inhibitor 15 µM
  SVMP activity, percentage of the venom-only sample: 18.6328% and 21.5132% and 17.5016%
[3]; inhibitor 150 µM
  SVMP activity, percentage of the venom-only sample: 15.3569% and 14.8369% and 16.006%
[4]; inhibitor 15 µM
  SVMP activity, percentage of the venom-only sample: 34.6541% and 41.4523% and 39.2938%
[4]; inhibitor 150 µM
  SVMP activity, percentage of the venom-only sample: 33.142% and 30.6392% and 28.5849%
[5]; inhibitor 15 µM
  SVMP activity, percentage of the venom-only sample: 22.3961% and 20.1207% and 18.6801%
[5]; inhibitor 150 µM
  SVMP activity, percentage of the venom-only sample: 20.1452% and 19.0476% and 17.6656%
[6]; inhibitor 15 µM
  maximum clotting velocity: 0.04261 and 0.04406 and 0.05475
[6]; inhibitor 150 µM
  maximum clotting velocity: 0.03159 and 0.02725 and 0.0282
[7]; inhibitor 15 µM
  maximum clotting velocity: 0.09233 and 0.098 and 0.085
[7]; inhibitor 150 µM
  maximum clotting velocity: 0.03733 and 0.04867 and 0.039
[8]; E. ocellatus, E. carinatus and B. asper venoms, highest dose 150 µM
  neutralizing the procoagulant activities: effective
[8]; range across all venoms, lower end of dimercaprol and marimastat ranges given as < 0.15, read-out: IC50, inhibition of procoagulant venom activity
  IC50: 800 to 25900 nM
[9]; D. russelii venom
  neutralizing the procoagulant activity: ineffective
[9]; inhibitor 15 µM
  maximum clotting velocity: 0.1186 and 0.1081 and 0.1102
[9]; inhibitor 150 µM
  maximum clotting velocity: 0.07853 and 0.08841 and 0.07869
[10]; across the active venoms
  lowest concentration generally effective / required to fully inhibit SVMP activities: 15 µM
[10]; range across the active venoms, read-out: IC50s, inhibition of venom SVMP activity
  IC50: 290 to 4190 nM
E. ocellatus venom [11]; 90 µg E. ocellatus venom i.p., 120 µg DMPS i.p. 15 mins later, D + AV also 168 µl EchiTAbG i.v. 1 hr after venom, 1 = death (=), 0 = survived (>=), ref Albulescu et al.1
  survival time of individual animals (Kaplan-Meier source data): 12.6 h and 21.51 h and 15.51 h and ≥ 24 h
E. ocellatus venom [11]; same preclinical model, E. ocellatus
  duration for which lethality was prevented: ~ 8 h

## N=C(N)c1ccc2cc(OC(=O)c3ccc(N=C(N)N)cc3)ccc2c1 [nafamostat]
E. ocellatus venom [12]; 45 µg E. ocellatus venom preincubated with 60 µg of each drug, i.v., 6 h
  protection against venom-induced lethality: no evident efficacy
E. ocellatus venom [12]; plasma after euthanasia, E. ocellatus venom + 60 µg of each drug, venom-only mean 1127.3, normal mice 10.2–15.9
  thrombin-antithrombin (TAT) levels, range in group: 543.9 to 859.1 ng/mL
[13]
  SVSP activity, rate of substrate consumption: 0.01667 ΔAbs/time/µg venom and 0.02387 ΔAbs/time/µg venom and 0.02696 ΔAbs/time/µg venom
[14]; nafamostat 150 nM
  SVSP activity, rate of substrate consumption: 0.0636 ΔAbs/time/µg venom and 0.06929 ΔAbs/time/µg venom and 0.08741 ΔAbs/time/µg venom
[14]; nafamostat 15 uM
  SVSP activity, rate of substrate consumption: 0.0014 ΔAbs/time/µg venom and 0.001071 ΔAbs/time/µg venom and 0.001786 ΔAbs/time/µg venom
[15]; nafamostat 150 nM
  SVSP activity, rate of substrate consumption: 0.08494 ΔAbs/time/µg venom and 0.09756 ΔAbs/time/µg venom and 0.1079 ΔAbs/time/µg venom
[15]; nafamostat 15 uM
  SVSP activity, rate of substrate consumption: 0.001726 ΔAbs/time/µg venom and 0.002857 ΔAbs/time/µg venom and 0.003095 ΔAbs/time/µg venom
[16]; nafamostat 150 nM
  SVSP activity, rate of substrate consumption: 0.03413 ΔAbs/time/µg venom and 0.03851 ΔAbs/time/µg venom and 0.04036 ΔAbs/time/µg venom
[16]; nafamostat 15 uM
  SVSP activity, rate of substrate consumption: 0.003733 ΔAbs/time/µg venom and 0.002738 ΔAbs/time/µg venom and 0.004018 ΔAbs/time/µg venom
[17]
  half-life: ~ 8 min
[18]; highest doses 150 and 15 µM, irrespective of venom
  inhibition of SVSP activity: completely inhibiting SVSP activity
[18]; range across venoms, read-out: IC50s, inhibition of venom SVSP activity
  IC50: 120 to 1070 nM
Plasma coagulation
  effect on normal plasma clotting: dramatically inhibits plasma coagulation
